Here are results for one molecule from patent publication US20140011822A1, “METHODS AND MATERIALS FOR REDUCING VENOUS STENOSIS FORMATION OF AN ARTERIOVENOUS FISTULA OR GRAFT” (priority 2011, published 2014).

One test has as its system MMP-2. The test can be described thus: RT-PCR for MMP-2 in kidneys, simvastatin. The format is in vivo, mice. The procedure: Animals were housed at 22° C. temperature, 41% relative humidity, and 12-/12-hour light/dark cycles. Animals were allowed access to water and food ad libitum. […] Sixty-eight male C57BL/6 mice (Jackson Laboratories, Bar Harbor, Me.) weighing 25-30 grams were used for the present study (FIG. 18). Chronic kidney disease was created by surgical removal of the right kidney accompanied by ligation of the arterial blood supply to the upper pole of the left kidney as described elsewhere (Misra et al., J. Vasc. Interv. Radiol., 21:1255-1261 (2010); see, also, FIG. 18A). Three weeks after nephrectomy, the animals were started on simvastatin (40 mg/kg administered i.p. three times per week) or PBS (equal amount of volume used for simvastatin i.p. controls). Simvastatin was prepared as described elsewhere (Wilson et al., Arterioscler Thromb. Vasc. Biol., 21:122-128 (2001)). […] Serum BUN and creatinine were measured by removing blood from the tail vein at baseline (before nephrectomy), at AVF creation, and at the time of sacrifice. […]
Expression for the gene of interest was determined using RT-PCR analysis as described elsewhere (Misra et al., J. Vasc. Interv. Radiol., 21:1255-1261 (2010)). […]

The next test relates to α-SMA. The test can be described thus: α-SMA staining of outflow vein, simvastatin. Format: in vivo, mice. To be noted: for average reduction of α-SMA density: vs control. The protocol: Multiple serial four-micrometer sections were stained and analyzed. Cellular proliferation was determined by staining for Ki-67 on sections removed from the outflow vein for simvastatin treated vessels or control groups. Smooth muscle density (α-SMA) or proliferation index (Ki-67) was determined by staining on sections removed from the outflow vein by performing quantification at the different time points. Immunohistochemistry for Ki-67 and α-SMA was performed on paraffin-embedded sections from the outflow vein after transfection with either simvastatin or controls using the Vectastain Elite ABC system (Vector Laboratories, Burlingame, Calif., USA). The following antibodies were used: mouse monoclonal antibody Ki-67 (DAKO, Carpentaria, Calif.; 1:400) or rabbit polyclonal antibody to mouse for α-SMA (Abcam, Cambridge, Mass.; 1:400).
Morphometric analysis was performed as described elsewhere (Misra et al., Kidney Int., 68:2890-2900 (2005); and Misra et al., Am. J. Physiol. Heart Circ. Physiol., 294:H2219-2230 (2008)). Briefly, the outflow vein was sectioned into multiple contiguous 4-μm paraffin embedded sections. Typically, 2 to 3 sections per animal for each group (simvastatin and controls) and time point (day 14 and day 28) were photographed and then quantified using KS 400 (Carl Zeiss, Inc., Thornwood, N.Y.) semiquantitative program.

SMILES strings stand for the structures.

For the molecule `CCC(C)(C)C(=O)O[C@H]1C[C@@H](C)C=C2C=C[C@H](C)[C@H](CC[C@@H]3C[C@@H](O)CC(=O)O3)[C@H]21` [simvastatin], the “expression of MMP-2” value in the test with MMP-2 (day 28) worked out at 0.78±0.09. The “Average reduction of MMP-2 expression” value in the test on MMP-2 (day 28, vs control) was 42%. Besides, the “average α-SMA density” value turned out to be 24±1.2 in the test with α-SMA (day 14), 8.4±1.6 in the test on α-SMA (day 28) and 28.4±1.6 in the test with α-SMA (day 28 normal). The “average reduction of α-SMA density” value is recorded as 46% with α-SMA (day 14), 87% with α-SMA (day 28) and 32% in the test on α-SMA (day 28 normal).
